The values that follow come from patent US20160228444A1, “NUCLEOSIDE ANALOGS AND USES THEREOF” (Ramot at Tel-Aviv University Ltd., priority 2015, published 2016).

Structures are written as SMILES. Where two headings read alike, the source gives them in different places.

By IC50 is commonly meant the concentration needed to halve the response being measured.

The test system of one data set is HO-1. Kind of data set: HO-1 protein and mRNA in tumor and heart of xenograft mice (Western blot, qRT-PCR). Format: in vivo. As to conditions: heart. As to the method:
(§1) Tumors and hearts of the mice were rapidly removed, frozen on dry ice and kept at −70° C. Tissue was then homogenized and RNA and proteins extracted using the NucleoSpin® RNA/Protein kit according to the manufacturer's protocol (Macherey-Nagel, GmbH & Co KG).
(§2) Total RNA ([…]) was primed by oligo dT and reverse-transcribed by Verso cDNA kit according to the manufacturer's protocol (Thermo Scientific). Analyses of qPCR were performed with Kapa Sybr® Fast (Kapa Biosystems) on a Step One Plus thermocycler (Applied Biosystems). The comparative threshold method was used to calculate the relative gene expression. Values were normalized against glyceraldehyde 3-phosphate dehydrogenase (GAPDH). Expression of the GAPDH mRNA in each individual sample was used to normalize the dataset. The sequences of the primers were as follows: […]
(§3) Protein levels in the samples were determined with the BCA protein assay kit (Pierce). The samples were subjected to Western blot analyses. The expression of proteins was visualized using their specified primary antibodies followed by the secondary IgG IRDye® 680DX antibody. Each detected band was quantified using the Odyssey Infrared Imaging System (LI-COR Biosciences) and normalized to the level of actin. The fold increase of a specific protein was determined by the ratio of the band intensity obtained from treated and untreated samples.
The effect of the drugs on the expression of genes associated with cell survival and death was examined by following changes in transcription and protein expression in tissue samples taken from the mice with glioblastoma xenografts. Heme oxygenase (HO-1) is known to play a protective role in the heart, whereas, in many cancers it is expressed and promotes growth and survival of neoplastic cells.

A further data set concerns IL-6. The data set is described as follows: LPS-induced IL-6 secretion by normal human astrocytes (sandwich-ELISA). In kind it is cell-based. As to conditions: 20 μM, LPS 1 μg/ml 24 hours, FIG. 16. On the procedure:
Normal human astrocytes (NHA) were treated with 20 μM AN446, and lipopolysaccharide (1 μg/ml) was then added for 24 hours, and the supernatants of the cultured cells were collected. IL-6 concentrations in cell culture supernatants were quantified by sandwich-ELISA using specific pairs of mAb antibodies (R&D).

In another data set the test system is PBL. The data set is described as follows: Median-effect drug interaction, MTT viability, 72 h. As to conditions: Homo sapiens. In kind it is cell-based. On the procedure:
(§4) Cell viability was determined by an MTT cell viability assay after 48 hours. MyLa cells (10^4 cells/well), Hut78 cells (5×10^3 cells/well) and normal PBLs (10^5 cells/well) were seeded in 96 well-plates. The PBLs were activated with 40 μg/10^6 cells of phytohemagglutinine (PHA) for 24 h before the experiment.
(§5) The ratios of the drug combination were based on the ratio of their IC50 of each drug alone. Cell viability was determined by MTT assay, as described hereinabove. The drugs were added to the cells and incubated for 72 h.

The next data set concerns pH2AX in H9C2 cells. The data set is described as follows: Phosphorylated H2AX (Western blot), 24 or 48 hours. As to conditions: FIG. 13B. Format: cell-based, rat. On the procedure: The effects of the abovementioned HDAC inhibitors on DNA damage and repair were then assessed by evaluating changes in levels of phosphorylated histone H2AX (pH2AX), a marker of DNA double-strand breaks, and Rad51, a marker of homologous recombination-guided DNA repair of double-strand breaks [Nagathihalli & Nagaraju, Biochim Biophys Acta 2011, 1816:209-218; Rogakou et al., J Biol Chem 1998, 273:5858-5868].
U251 and H9C2 cells were treated with the HDAC inhibitors for 24 or 48 hours, and then subjected to Western blot analysis.

A further data set concerns MyLa CTLC cell line. The data set is described as follows: MTT cell viability assay, 48 hours. Format: cell-based, human. On the procedure: (§6) The MyLa CTLC cell line (originating from an indolent mycosis fungoides patient) and the Hut-78 CTLC cell line (originating from an aggressive Sézary patient) were used to evaluate toxicity towards cancer cells, and peripheral blood lymphocytes (PBLs) from healthy volunteers were used to evaluate toxicity towards noncancerous cells.
as §4
(In general: Tetrazolium assays rely on reduction of a dye to a coloured formazan, in cell work by metabolically active cells.)

A further data set relates to Hut-78 CTLC cell line. The data set is described as follows: MTT cell viability assay, 48 hours. Format: cell-based, human. As to the method:
as §6, §4

The test system of the next data set is HUT-78 CTCL cells. The data set is described as follows: Median-effect drug interaction, MTT viability, 72 h. Format: cell-based, human. As to conditions: Homo sapiens. As to the method:
as §4, §5

For data set [1], the system named is acetylated H3 histone in H9C2 cardiomyoblasts. The data set is described as follows: Histone H3 acetylation (Western blot), 24 hours. Format: cell-based, rat. As to conditions: FIG. 12. On the procedure:
The effects of the abovementioned HDAC inhibitors on histone acetylation were also compared. U251 and H9C2 cells were treated with the HDAC inhibitors for 24 hours (according to procedures described hereinabove with respect to FIGS. 9 and 10), and then subjected to Western blot analysis.
Background: Immunoblotting shows a protein as a band on a membrane.

A further data set relates to bFGF. The data set is described as follows: bFGF protein and mRNA in tumor and heart of xenograft mice (Western blot, qRT-PCR). In kind it is in vivo. As to conditions: for expression of mouse bFGF protein in the heart: FIG. 4D; for expression of bFGF in tumors / bFGF mRNA in the tumor: tumor; for bFGF mRNA in the tumor: FIG. 6. As to the method: as §1, §2, §3
The pro-angiogenic factors basic fibroblast growth factor (bFGF) and vascular endothelial growth factor (VEGF) are potent angiogenic stimulators. The expression of bFGF in the tumor and in the heart was evaluated by Western blot and qRT-PCR analyses and expression of VEGF by IHC.

The test system of data set [2] is proliferating fibroblasts in cardiac tissue. The data set is described as follows: Proliferating fibroblasts in heart sections (Ki67 / vimentin immunostaining). Format: in vivo, mice. As to conditions: co-administration with doxorubicin, FIGS. 8B, 8C. From the text:
In addition, by double-staining heart sections by immunostaining for the fibroblast marker vimentin and the proliferation marker Ki67, it was observed that most of the proliferating (Ki67-positive) cells in hearts of doxorubicin-treated mice were fibroblasts (vimentin-positive).

The next data set has as its system IL-10. Kind of data set: IL-10 in supernatant of LPS-treated THP1 cells (ELISA). Format: cell-based. As to conditions: 1 μg/ml LPS, FIG. 7B. As to the method: The effect of AN446 on inflammation-associated pathways was evaluated in the monocytic THP1 cell line and in the MDA-MB-231 breast carcinoma cell line. Supernatants of treated THP1 cells were collected and IL-6, IL-10 and TNF-α concentrations were quantified by ELISA (R&D systems). TLR4 expression in THP1 cells was assessed using fluorescent anti-TLR4 antibodies and FACS analysis. In addition, gene expression for MCP-1, TNF-α and TLR4 in MDA-MB-231 was evaluated by qRT-PCT, following treatment with AN446 and/or paclitaxel.
For orientation: ELISA stands for enzyme-linked immunosorbent assay.

In data set [3] the test system is 10 different cancer cell lines. Kind of data set: Viability assay (Hoechst for adherent cells, MTT for suspension cells), 72 h.
Experimental: Hoechst assay: 22RV-1, MCF-7, MCF-7DX, 4T1, U251, and T47D cells (3×10^3 cells/well) and NCI-N87 (8×10^3 cells/well) were seeded in tissue culture in growth medium for 24 h in 96-well plates (in triplicate) and then exposed to different concentrations (titration) of the tested drug for 72 h at 37° C. The plates were then rinsed with PBS and fixed with 100 ml of 70% ethanol for 30 min. […] The fluorescence was measured (excitation at 390 nm and emission at 460 nm) with a Synergy III Fluorometer-Elisa reader (BioTek Instruments, Inc. Germany). The viability of cells grown in suspension was measured by the MTT assay. HL-60, Daudi and Jurkat cells were seeded (5×10^3 cells/well) in 96-well plates in growth medium and immediately exposed to different concentrations (titration) of the tested drugs (in triplicate). After 72 h incubation, the MTT reagent in PBS (10 ml of 5 mg/ml) was added to the cell suspension and incubated for an additional 3 h. Then, 100 ml of 0.04 M HCl in isopropanol was added and the absorbance at 570 nm measured using a Synergy III Fluorometer-spectrophotometer ELISA reader.

Regarding `CCCC(CCC)C(=O)Nc1nc2c(ncn2COCCOC(=O)C(CCC)CCC)c(=O)[nH]1` [AN446, N-valproyl-9-(2-valproyloxy)ethoxymethyl-guanine], the “HO-1 expression in the heart” value in the data set on HO-1 (co-treatment with Dox) is given as “increased the expression of this enzyme to a significantly higher level”. Moreover, the “HO-1 mRNA in the heart, elevation of basal expression level” value in the data set with HO-1 (co-treatment with Dox) is recorded as 3.89±0.35 fold. In addition, the “HO-1 expression in the heart (decrease)” value in the data set with HO-1 (single agent, FIGS. 4D, 4E) is reported as “did not significantly change”. For the same compound, the “lipopolysaccharide-induced secretion of IL-6 by human astrocytes” value in the data set on IL-6 is “inhibited”. Besides, the IC50 stood at 187 µM in the data set on PBL (read-out: com IC50, PBL, in combination with Dox); 198 µM in the data set with PBL (single agent, Table 2); 40 ± 2.3 µM in the data set with MyLa CTLC cell line (Homo sapiens, 48 h, read-out: IC50 MyLa); 21 ± 1.3 µM in the data set on Hut-78 CTLC cell line (Homo sapiens, HuT78, 48 h, read-out: IC50 HUT78); 28 µM in the data set on HUT-78 CTCL cells (HuT78, HUT-78, single agent, Table 2); 11 µM in the data set on HUT-78 CTCL cells (HuT78, read-out: com IC50, HUT-78, in combination with Dox). In addition, the 50% inhibitory concentration (IC50) in data set [3] (72 h, read-out: IC50 (cell viability)) was 20 to 46 µM. The “pH2AX levels in cardiomyocytes (H9C2)” value in the data set with pH2AX in H9C2 cells is “did not increase pH2AX levels”. Also, the “toxicity to MyLa cells relative to normal PBLs” value with MyLa CTLC cell line (from Table 1 IC50 values) is reported as “about 5 fold”. For the same compound, the “toxicity to Hut-78 cells relative to normal PBLs” value in the data set on Hut-78 CTLC cell line (from Table 1 IC50 values) is on record as “about 10 fold”. Also, in data set [1], the “histone acetylation in H9C2 cardiomyocytes” value was “not in non-cancerous cardiomyocytes”. Further, the figures for the “expression of mouse bFGF protein in the heart” value with bFGF (co-treatment with Dox) and in the data set with bFGF (single agent) were “significantly increased its expression to a level higher than that observed in naive or vehicle-treated mice” and “unchanged”, respectively. For the same compound, the “expression of bFGF in tumors” value in the data set with bFGF (combination with Dox) was “further diminished”; in the data set with bFGF (single agent, FIGS. 4A, 4B) it was “decreased significantly”. Also, the “bFGF mRNA in the tumor” value with bFGF (combined treatment with Dox) is recorded as “suppressed it significantly further”; with bFGF (single agent), “significantly reduced the bFGF mRNA”. Moreover, the “doxorubicin-induced proliferation of fibroblasts in cardiac tissue” value in data set [2] is on record as “significantly reduced the doxorubicin-induced proliferation of fibroblasts”. Moreover, in the data set with IL-10, the “expression of IL-10” value is listed as “doubled”. In addition, in [3] (from IC50 values, FIG. 1A), the “potency in reducing the viability of cancer cells relative to AN7” value was 2-5 fold.
